From patent publication US10517889B2, “Modulators of SMAD7 expression” (Ionis Pharmaceuticals, Inc., priority 2017, dated 2019)
Strand notation (5' to 3'): a small letter for the sugar, then the base; units joined by * are phosphorothioate-linked, units joined directly phosphodiester-linked; [ ] holds rarer units or linkages, { } end groups; capitals alone tell only the bases. e = 2'-O-(2-methoxyethyl) (MOE); [5mC] = 5-methylcytosine; d = 2'-deoxy (DNA)

Experiments:
human SMAD7 mRNA [1] = test: Antisense inhibition of human SMAD7 mRNA expression in Hep3B cells by 5-10-5 MOE gapmers, single concentration, electroporation, RT-PCR (Example 1, Study 1 and 2); format: cell-based
Summary of the method: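 Hep3B cells (20,000/well) electroporated with 5-10-5 MOE gapmer at 5,000 nM or 15,000 nM for approximately 24 h. SMAD7 mRNA quantified by real-time PCR with primer probe set RTS5062 and normalized to RIBOGREEN total RNA. Values are percent inhibition relative to untreated controls.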

human SMAD7 mRNA [2] = test: Dose-dependent inhibition of human SMAD7 mRNA expression in Hep3B cells (Example 3, Study 1 and 2); format: cell-based; conditions: electroporation; for % inhibition of SMAD7 mRNA expression: approximately 16 hours; for IC50: Study 1 (312.5-20000 nM)
Summary of the method: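 Hep3B cells, 20,000 per well, electroporated with antisense oligonucleotide at 0.31, 1.25, 5.00 or 20.00 μM (first series) or 0.74, 2.22, 6.67 or 20.00 μM (second series). After ~16 h, SMAD7 mRNA measured by RT-qPCR (RTS5062), normalised to RIBOGREEN total RNA. Percent inhibition vs untreated cells; IC50 derived.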

[3] = electroporation, 15,000 nM antisense oligonucleotide (Study 2), 5-10-5 MOE gapmers targeting SEQ ID NO: 1 and 2
[4] = 312.5 nM, Study 1, relative to untreated control cells
[5] = Study 2, electroporation with 15,000 nM antisense oligonucleotide, 5-10-5 MOE gapmers targeting SEQ ID NO: 1 and 2
[6] = electroporation, 15,000 nM, approximately 24 hours, relative to untreated control cells, gapmers targeting SEQ ID NO: 1 and 2
[7] = electroporation with 15,000 nM antisense oligonucleotide (Study 2), 5-10-5 MOE gapmers targeting SEQ ID NO: 1 and 2

Row | Substance | % inhibition of SMAD7 mRNA expression (human SMAD7 mRNA [1]; [3]) | % inhibition of SMAD7 mRNA expression (human SMAD7 mRNA [2]; [4]) | % inhibition of SMAD7 mRNA expression (human SMAD7 mRNA [2]; 1250.0 nM, Study 1) | % inhibition of SMAD7 mRNA expression (human SMAD7 mRNA [2]; 5000.0 nM, Study 1) | % inhibition of SMAD7 mRNA expression (human SMAD7 mRNA [2]; 20000.0 nM, Study 1) | IC50 (human SMAD7 mRNA [2]) | % inhibition of SMAD7 mRNA expression (human SMAD7 mRNA [1]; [5]) | % inhibition of SMAD7 mRNA expression (human SMAD7 mRNA [1]; [6]) | % Inhibition (human SMAD7 mRNA [1]; [5]) | % Inhibition of SMAD7 mRNA (human SMAD7 mRNA [1]; [7]) | % inhibition of SMAD7 mRNA expression (human SMAD7 mRNA [1]; [7]) | % inhibition of SMAD7 mRNA expression (human SMAD7 mRNA [1]; electroporation, 5,000 nM, approximately 24 hours, relative to untreated control cells, gapmers targeting SEQ ID NO: 1 and 2)
1 | 771474 (antisense eG*e[5mC]*eA*eG*e[5mC]*d[5mC]*dG*dA*dT*dT*dT*dT*dG*d[5mC]*dT*e[5mC]*e[5mC]*eG*e[5mC]*eA) [compound 771474] | 56% | 3% | 4% | 21% | 52% | 17 µM |  |  |  |  |  | 
2 | 771670 (antisense eA*eG*eT*e[5mC]*e[5mC]*dT*dT*dT*d[5mC]*dT*d[5mC]*dT*d[5mC]*dT*d[5mC]*eA*eA*eA*eG*e[5mC]) [compound 771670] |  | 0% | 0% | 21% | 47% | > 20 µM | 46% |  |  |  |  | 
3 | 771717 (antisense eT*e[5mC]*e[5mC]*e[5mC]*eA*dT*d[5mC]*dT*dA*dT*d[5mC]*dG*dA*dA*dT*e[5mC]*eA*e[5mC]*e[5mC]*e[5mC]) [compound 771717] |  | 2% | 0% | 0% | 30% | > 20 µM |  | 57% |  |  |  | 
4 | 771439 (eG*eG*e[5mC]*eT*eG*d[5mC]*dG*d[5mC]*dG*d[5mC]*d[5mC]*dG*dG*d[5mC]*dG*eG*eG*e[5mC]*eG*e[5mC]; antisense) [compound 771439] |  | 0% | 24% | 49% | 55% | 9 µM |  |  | 48% |  |  | 
5 | 771900 (antisense eA*eT*eG*e[5mC]*e[5mC]*d[5mC]*dA*d[5mC]*d[5mC]*dA*dG*dT*d[5mC]*dT*dT*e[5mC]*e[5mC]*eT*eG*eA) [compound 771900] |  | 0% | 11% | 8% | 29% | > 20 µM |  |  | 32% |  |  | 
6 | 771387 (antisense eA*eG*e[5mC]*eA*eT*d[5mC]*dT*dG*dG*dA*d[5mC]*dA*dG*dT*d[5mC]*eT*eG*e[5mC]*eT*eG) [compound 771387] | 6% | 8% | 13% | 28% | 70% | 10 µM |  |  |  | 59% |  | 
7 | 771632 (antisense eA*eA*eT*e[5mC]*e[5mC]*dT*dT*d[5mC]*dT*dT*dG*dG*dA*dG*dG*eG*eA*eA*eG*eG) [compound 771632] |  | 6% | 6% | 46% | 64% | 9 µM |  |  |  | 54% | 31% | 
8 | 771808 (antisense e[5mC]*e[5mC]*e[5mC]*e[5mC]*eA*dA*dA*dG*dT*d[5mC]*d[5mC]*dA*d[5mC]*dG*d[5mC]*eT*e[5mC]*eA*eT*eG) [compound 771808] | 32% | 10% | 0% | 23% | 66% | 16 µM |  |  |  | 54% |  | 
9 | 771570 (antisense eT*eG*eG*eG*eA*d[5mC]*dT*dG*d[5mC]*dA*dA*dA*d[5mC]*d[5mC]*dT*e[5mC]*eT*e[5mC]*eT*eG) [compound 771570] | 60% | 0% | 0% | 43% | 48% | > 20 µM |  |  |  |  |  | 
10 | 771418 (e[5mC]*e[5mC]*eG*e[5mC]*e[5mC]*dA*d[5mC]*d[5mC]*dG*dG*d[5mC]*d[5mC]*d[5mC]*d[5mC]*dA*eT*eG*e[5mC]*eG*e[5mC]; antisense) [compound 771418] | 60% | 3% | 0% | 0% | 0% |  |  |  |  |  |  | 
11 | 771386 (antisense e[5mC]*eT*eG*eG*eA*d[5mC]*dA*dG*dT*d[5mC]*dT*dG*d[5mC]*dT*dG*eT*eG*eG*eA*eT) [compound 771386] |  | 9% | 3% | 25% | 60% | 19 µM |  |  | 57% |  |  | 
12 | 771794 (antisense eG*eA*eA*eG*e[5mC]*dA*dA*dG*dT*d[5mC]*dA*d[5mC]*dT*dG*d[5mC]*e[5mC]*eT*eT*e[5mC]*eT) [compound 771794] | 68% | 0% | 0% | 27% | 41% | > 20 µM |  |  |  |  |  | 
13 | 771610 (antisense eA*e[5mC]*e[5mC]*eT*eG*dA*dT*dG*dT*d[5mC]*dA*d[5mC]*d[5mC]*dA*dG*eG*eG*e[5mC]*eA*eG) [compound 771610] |  | 0% | 0% | 37% | 38% | > 20 µM |  |  |  |  | 52% | 
14 | 771583 (antisense eT*eG*e[5mC]*eT*e[5mC]*d[5mC]*dT*dG*dG*d[5mC]*dA*dG*d[5mC]*dT*dG*e[5mC]*eT*eG*eG*eG) [compound 771583] |  | 0% | 15% | 36% | 59% | 10 µM | 57% |  |  |  |  | 
15 | 771782 (antisense eT*eA*eG*eG*eA*d[5mC]*dT*dG*dG*dA*dA*dG*dA*dG*d[5mC]*eT*eT*eT*eG*eG) [compound 771782] |  | 0% | 9% | 27% | 38% | > 20 µM |  |  | 50% |  |  | 
16 | 771573 (antisense eG*e[5mC]*eT*eT*eG*dG*dG*dA*d[5mC]*dT*dG*d[5mC]*dA*dA*dA*e[5mC]*e[5mC]*eT*e[5mC]*eT) [compound 771573] |  | 0% | 5% | 24% | 56% | 18 µM |  | 65% |  |  |  | 
17 | 771715 (antisense eA*eG*eT*e[5mC]*eT*d[5mC]*d[5mC]*dG*dA*dG*dT*dT*dA*dT*d[5mC]*e[5mC]*e[5mC]*e[5mC]*eA*eT) [compound 771715] |  | 7% | 18% | 42% | 49% | 17 µM |  |  | 67% |  |  | 68%
18 | 771799 (antisense e[5mC]*eT*eT*e[5mC]*e[5mC]*dA*dA*d[5mC]*dA*d[5mC]*dA*dT*dG*d[5mC]*dT*e[5mC]*eT*eG*e[5mC]*eA) [compound 771799] |  | 0% | 8% | 28% | 48% | > 20 µM |  |  | 57% |  |  | 
19 | 771778 (antisense eT*eG*eA*eG*eT*dA*dA*dA*d[5mC]*dA*dA*dT*dA*d[5mC]*d[5mC]*e[5mC]*eT*e[5mC]*eA*eG) [compound 771778] | 66% | 48% | 0% | 37% | 55% | > 20 µM |  |  |  |  |  | 
20 | 771732 (antisense eG*eT*e[5mC]*eA*eT*dG*dT*dG*dA*dA*d[5mC]*dA*d[5mC]*dT*d[5mC]*eT*eT*eT*e[5mC]*eA) [compound 771732] |  | 35% | 24% | 39% | 58% | 15 µM |  |  | 36% |  |  | 
21 | 771711 (antisense e[5mC]*eG*e[5mC]*eA*e[5mC]*dT*dT*d[5mC]*dA*d[5mC]*dA*dG*dT*dT*d[5mC]*eA*e[5mC]*eA*eG*eG) [compound 771711] |  | 17% | 25% | 27% | 59% | 18 µM |  |  | 57% |  |  | 
